Key:
Assay type in all cases: cell-based
[1] = system: Rhodococcus erythropolis PR-4; assay: Treatment of various hydrocarbons: growth and localization of PR-4 in organic solvent/IB medium bilayer culture; settings: hydrocarbon 5% (v/v) in IB medium, 28° C., 110 rpm, third day of culturing
Experimental: (§1) IB liquid medium was prepared as shown below.
(§2) As n-alkanes, n-hexane (C6), n-octane (C8), n-nonane (C9), n-decane (C10), n-undecane (C11), n-dodecane (C12), n-tridecane (C13), n-tetradecane (C14), n-pentadecane (C15), n-hexadecane (C16), n-heptadecane (C17), and n-octadecane (C18) were used.
(§3) As test strains, Rhodococcus erythropolis PR-4 and Rhodococcus rhodochrous S-2 were used.
(§4) On the third day after the start of culturing, the growth status of the test bacteria and sites where the test bacteria had localized were observed. When the test bacteria were present in the organic solvent, they were labeled “inside” and when they were present on the surface of the organic solvent, they were labeled “surface.” The results are shown in Table 1.

[2] = system: Rhodococcus rhodochrous S-2; assay: Treatment of various hydrocarbons: growth and localization of S-2 in organic solvent/IB medium bilayer culture; settings: hydrocarbon 5% (v/v) in IB medium, 28° C., 110 rpm, third day of culturing
Experimental: as §1, §2, §3, §4

[3] = system: Rhodococcus erythropolis PR-4; assay: Investigation of Rhodococcus erythropolis PR-4 adaptation (two-stage culture with different hydrocarbons); parameters: key: ±: growth is shown at interface of hydrocarbon and IB liquid culture medium; +: growth is shown in hydrocarbon; settings: pristane (C19) into dodecane (C12): PR-4 first cultured 3 days with pristane, then with dodecane 5% (v/v); third day

CC(C)CCCC(C)CCCC(C)CCCCC(C)CCCC(C)CCCC(C)C (stereo not drawn) [n-squalane, squalane]
PR-4 growth [1]: + | S-2 growth [2]: ±

CCCCCCCC [n-octane]
PR-4 growth [1]: − | S-2 growth [2]: −

CCCCCCCCCCCCCC [n-tetradecane]
PR-4 growth [1]: + | S-2 growth [2]: ±

CCCCCCCCCCCCCCCC [n-hexadecane]
PR-4 growth [1]: + | S-2 growth [2]: ±

CCCCCCCCCC [n-decane]
PR-4 growth [1]: ± | S-2 growth [2]: −

CCCCCCCCCCCC [n-dodecane]
PR-4 growth [1]: ± | S-2 growth [2]: − | growth [3]: +

CCCCCC [n-hexane]
PR-4 growth [1]: − | S-2 growth [2]: −

From patent publication US20060263870A1, “Hydrocarbon processing method and hydrocarbon processing system” (NIHON UNIVERSITY, priority 2005, published 2006)
